Measurements taken from ChEMBL document CHEMBL1122475, “Antidepressant activity of 5-aryl-2,3,5,6-tetrahydroimidazo[2,1-a]isoquinolin-5-ols” (1983).
Activity calls are given as the source filed them. No cut-off for these calls is given here.

Legend:
[1] = tested on: Mus musculus; assay: Inhibition of reserpine (5 mg/kg i.p.) induced hypothermia in mice 4 hr after i.p. administration.; assay type: functional; details: ip
[2] = tested on: Mus musculus; assay: Minimal dose required to cause aggressiveness in mice after ip administration; not active at a dose of 50.0 mg/kg; assay type: functional, organism-based; design: dose 50 mg/kg
[3] = tested on: Mus musculus; assay: Minimal dose required to induce in mice straub tail (ip); assay type: functional
[4] = tested on: Mus musculus; assay: Lethal dose by i.p. administration.; assay type: functional; details: ip
[5] = tested on: Mus musculus; assay: Minimal dose required to induce hyperaesthesia in mice (ip); assay type: functional
[6] = tested on: Mus musculus; assay: Minimal dose required to cause piloerection in mice after ip administration; not active at a dose of 50.0 mg/kg; assay type: functional, organism-based; design: dose 50 mg/kg
[7] = tested on: Mus musculus; assay: Dose required to induce hypersensitivity in mice (ip); assay type: functional
[8] = tested on: Mus musculus; assay: Dose at which 50% convulsions occurred in mice (ip); assay type: functional
[9] = tested on: Mus musculus; assay: Inhibition of reserpine (5 mg/kg i.p.) induced hypothermia in mice 2 hr after i.p. administration.; assay type: functional; details: ip
[10] = tested on: Mus musculus; assay: Dose required to induce hyperactivity in mice (ip); not active at a dose of 50.0 mg/kg; assay type: functional, organism-based; design: dose 50 mg/kg
[11] = tested on: Mus musculus; assay: Minimal dose required to induce in mice exophthalmus (ip); not active at a dose of 50.0 mg/kg; assay type: functional, organism-based; design: dose 50 mg/kg
[12] = tested on: Mus musculus; assay: Minimal dose required to induce in mice straub tail (ip); not active at a dose of 50.0 mg/kg; assay type: functional, organism-based; design: dose 50 mg/kg
[13] = tested on: Mus musculus; assay: Dose required to induce hypersensitivity in mice (ip); not active at a dose of 50.0 mg/kg; assay type: functional, organism-based; design: dose 50 mg/kg
[14] = tested on: Mus musculus; assay: Minimal dose required to induce hyperaesthesia in mice (ip); not active at a dose of 50.0 mg/kg; assay type: functional, organism-based; design: dose 50 mg/kg
[15] = tested on: Felis catus; assay: Compound tested to induce facilitation of monosynaptic spikes in spinal ventral root by stimulation of the dorsal root (DR-VR) after iv administration in cats; assay type: functional
[16] = tested on: Mus musculus; assay: Minimal dose required to cause aggressiveness in mice after ip administration; not active at a dose of 12.5 mg/kg; assay type: functional, organism-based; design: dose 12.5 mg/kg
[17] = tested on: Mus musculus; assay: Dose required to induce hyperactivity in mice (ip); not active at a dose of 12.5 mg/kg; assay type: functional, organism-based; design: dose 12.5 mg/kg
[18] = tested on: Mus musculus; assay: Minimal dose required to cause piloerection in mice after ip administration; assay type: functional
[19] = tested on: Mus musculus; assay: Minimal dose required to induce in mice exophthalmus (ip); assay type: functional
[20] = tested on: Mus musculus; assay: Minimal dose required to cause aggressiveness in mice after ip administration; not active at a dose of 25.0 mg/kg; assay type: functional, organism-based; design: dose 25 mg/kg
[21] = tested on: Mus musculus; assay: Dose required to induce hyperactivity in mice (ip); not active at a dose of 25.0 mg/kg; assay type: functional, organism-based; design: dose 25 mg/kg
[22] = tested on: Mus musculus; assay: Minimal dose required to cause piloerection in mice after ip administration; not active at a dose of 25.0 mg/kg; assay type: functional, organism-based; design: dose 25 mg/kg
[23] = tested on: Mus musculus; assay: Dose required to induce hypersensitivity in mice (ip); not active at a dose of 25.0 mg/kg; assay type: functional, organism-based; design: dose 25 mg/kg
[24] = tested on: Mus musculus; assay: Dose required to induce hyperactivity in mice (ip); assay type: functional
[25] = tested on: Mus musculus; assay: Minimal dose required to cause aggressiveness in mice after ip administration; assay type: functional
[26] = tested on: Mus musculus; assay: Minimal dose required to cause piloerection in mice after ip administration; not active at a dose of 12.5 mg/kg; assay type: functional, organism-based; design: dose 12.5 mg/kg
[27] = tested on: Mus musculus; assay: Dose required to induce hypersensitivity in mice (ip); weak active at a dose of 12.5 mg/kg; assay type: functional, organism-based; design: dose 12.5 mg/kg

Structure (SMILES)	ED50 [1] [mg/kg]	MD [2]	MD [3] [mg/kg]	LD50 [4] [mg/kg]	MD [5] [mg/kg]	MD [6]	CD50 [8] [mg/kg]	ED50 [9] [mg/kg]	ED50 [10]	MD [11]	MD [19] [mg/kg]	other results
Cc1ccc(C2(O)Cc3ccccc3C3=NCCN32)cc1 (centres undefined)	> 25.6	inactive	37.5	84.1	37.5	inactive	75	> 25.6	inactive	inactive		ED50 [7]: 37.5 mg/kg
OC1(c2ccc(Cl)cc2Cl)Cc2ccccc2C2=NCCN21 (centres undefined)	> 25.6	inactive		81.3		inactive	75	5.4	inactive	inactive		MD [12]: inactive; ED50 [13]: inactive; MD [14]: inactive; Activity [15]: >3 mg/kg
OC1(c2ccc(Cl)cc2)c2ccccc2C2=NCCN21 (centres undefined) [MAZINDOL]	0.12							0.05				
OC1(c2ccc3c(c2)OCO3)Cc2ccccc2C2=NCCN21 (centres undefined)	0.5		4.7	10.2	4.7		18.8	0.1			4.7	MD [16]: inactive; ED50 [17]: inactive; MD [18]: 9.4 mg/kg; ED50 [7]: 12.5 mg/kg
OC1(c2ccncc2)Cc2ccccc2C2=NCCN21 (centres undefined)	3.3		18.8	37.9	18.8		37.5	2.3			18.8	MD [20]: inactive; ED50 [21]: inactive; MD [22]: inactive; ED50 [23]: Weak
OC1(c2ccccc2F)Cc2ccccc2C2=NCCN21 (centres undefined)	> 11.5			35.5				5.1				
OC1(c2ccc(Cl)cc2)Cc2ccccc2C2=NCCN21 (centres undefined)	6.4		18.8	75	37.5		37.5	0.025			18.8	ED50 [24]: 25 mg/kg; MD [22]: inactive; ED50 [23]: inactive; Activity [15]: >1 mg/kg
OC1(c2cccc(F)c2)Cc2ccccc2C2=NCCN21 (centres undefined)	5.2		9.4	21	9.4			0.7			9.4	MD [25]: 9.4 mg/kg; ED50 [24]: 12.5 mg/kg; MD [26]: inactive; ED50 [27]: Weak
CN(C)CCCN1c2ccccc2CCc2ccccc21 [IMIPRAMINE]	12.8							6.3				
OC1(c2cccnc2)Cc2ccccc2C2=NCCN21 (centres undefined)	> 25.6	inactive		68.8		inactive	75	7	inactive	inactive		MD [12]: inactive; ED50 [13]: inactive; MD [14]: inactive
